Measurements reported in patent US9447100B2, “Substituted pyrazolo[1,5-A] pyrimidines as calcium receptor modulating agents” (Takeda Pharmaceutical Company Limited, priority 2002, dated 2016).

Target: T1, human CaR (Homo sapiens, UniProt P41180)
T1 construct: expressed in transfected cells; host or cells: CHO-K1 cells stably transfected with pMSRαneo-CaR (cDNA amplified from human kidney cDNA); membrane fraction used
T1 sequence (P41180 20-1078): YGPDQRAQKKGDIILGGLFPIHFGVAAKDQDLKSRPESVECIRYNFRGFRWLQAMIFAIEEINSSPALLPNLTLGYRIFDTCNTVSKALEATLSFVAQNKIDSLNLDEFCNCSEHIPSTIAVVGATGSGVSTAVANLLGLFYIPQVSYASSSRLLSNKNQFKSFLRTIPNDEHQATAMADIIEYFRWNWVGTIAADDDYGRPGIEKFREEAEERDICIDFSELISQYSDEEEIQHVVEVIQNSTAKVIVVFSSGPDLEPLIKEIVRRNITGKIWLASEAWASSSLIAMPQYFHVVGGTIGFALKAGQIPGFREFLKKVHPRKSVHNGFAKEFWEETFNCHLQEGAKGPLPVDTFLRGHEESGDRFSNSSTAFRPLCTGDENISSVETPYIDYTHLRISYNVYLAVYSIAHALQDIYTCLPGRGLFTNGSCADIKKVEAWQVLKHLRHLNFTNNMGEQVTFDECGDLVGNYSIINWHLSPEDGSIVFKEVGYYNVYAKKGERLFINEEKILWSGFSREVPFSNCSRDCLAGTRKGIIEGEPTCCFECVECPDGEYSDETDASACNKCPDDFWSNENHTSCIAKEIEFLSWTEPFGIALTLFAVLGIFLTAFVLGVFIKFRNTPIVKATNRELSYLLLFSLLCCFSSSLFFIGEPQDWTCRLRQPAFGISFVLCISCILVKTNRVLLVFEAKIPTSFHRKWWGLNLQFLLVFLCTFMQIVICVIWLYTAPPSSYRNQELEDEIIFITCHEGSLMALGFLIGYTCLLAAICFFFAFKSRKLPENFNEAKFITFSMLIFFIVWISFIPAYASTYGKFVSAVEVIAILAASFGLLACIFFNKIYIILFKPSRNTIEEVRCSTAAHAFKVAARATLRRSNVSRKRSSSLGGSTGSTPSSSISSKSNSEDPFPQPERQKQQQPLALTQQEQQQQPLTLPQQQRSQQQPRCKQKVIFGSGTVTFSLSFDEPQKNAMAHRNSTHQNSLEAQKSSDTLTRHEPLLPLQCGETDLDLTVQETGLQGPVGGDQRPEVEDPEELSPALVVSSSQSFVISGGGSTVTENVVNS
Experiment: [35S]-GTPγS binding assay in membrane fraction of human CaR-expressing CHO cells
Assay type: biochemical
Conditions: relative to binding with 6 mM calcium only (100×(t′−b)/(t−b))
Method: Preparation of membrane fraction is described bellow. The human CaR-expressing CHO cells were inoculated to a F500 flask in 1.8×10^5 cells/flask followed by cultivation for 2 days. The cells were scraped with 10 ml of Phosphate-Buffered Saline containing 0.02% EDTA. After centrifugation (2000 rpm, 10 min) of the cells, the cell pellet was resuspended into 12 ml of homogenate buffer solution (10 mM NaHCO3, 1 mM EDTA, 1× Protease inhibitor cocktail (pH 7.4)) and homogenized by Polytron™ (20000 rpm, 1 min). The cell debris was removed by centrifugation (2000 rpm, 10 min), and then the CaR-expressing cell membrane fraction was collected by ultracentrifugation (Beckman 70 Ti type rotor, 30000 rpm, 1 hour).
The GTPγS binding activity was measured as follows. Twenty μg of the CaR-expressing cell membrane was incubated with test compounds for 10 min. The assays were carried out at room temperature for an hour in a reaction solution mixture containing 20 mM HEPES (pH. 7.4), 100 mM NaCl, 1 mM MgCl2, 167 μg/ml DTT, 5 μM guanosine 5′-diphosphate, 0.4 nM [^35S]-guanosine 5′-(γ-thio)triphosphate ([^35S]-GTPγS) and 6 mM CaCl2. The mixture was filtered through a GF/C filter. After washing fourth with 300 μl of Phosphate-Buffered Saline, the amount of [^35S]-GTPγS bound to the filter was measured using a Top-count scintillation counter.
Effects of test compounds on [^35S]-GTPγS binding were expressed in percentage terms. This was calculated from the equation [100×(t′−b)]/(t−b) where t′, t and b are values of [^35S]-GTPγS binding (dpm), t′ in the presence of 6 mM calcium and the test compound, t in the presence of 6 mM calcium only and b in the absence of both 6 mM calcium and the test compound.

[1] = test compound 1 μM, compounds marked antagonist

| Compound | [35S]-GTPγS binding (%) [1] | [35S]-GTPγS binding (%) (test compound 10 μM, compound marked agonist) |
| --- | --- | --- |
| CC1(C(F)(F)F)CC(c2ccccc2)Nc2c(C(=O)NC34CC5CC(CC(C5)C3)C4)cnn21 (stereo not shown) [Example 436, N-(1-adamantyl)-7-methyl-5-phenyl-7-(trifluoromethyl)-4,5,6,7-tetrahydropyrazolo[1,5-a]pyrimidine-3-carboxamide] | 12 (1 μM) % | – |
| Cc1ccc(C(OC2CCN(C(=O)c3cnn4c3NC(c3ccccc3)CC4C(F)(F)F)CC2)c2ccc(C)cc2)cc1 (stereo not shown) [Example 312, 3-((4-(bis(4-methylphenyl)methoxy)-1-piperidinyl)carbonyl)-5-phenyl-7-(trifluoromethyl)-4,5,6,7-tetrahydropyrazolo[1,5-a]pyrimidine] | 10 (1 μM) % | – |
| CCC(CC)(NC(=O)c1cnn2c1NC(c1ccccc1)CC2(C)C)c1ccc(-c2ccsc2)cc1 (stereo not shown) [Example 423, N-(1-ethyl-1-(4-(3-thienyl)phenyl)propyl)-7,7-dimethyl-5-phenyl-4,5,6,7-tetrahydropyrazolo[1,5-a]pyrimidine-3-carboxamide] | 0 (1 μM) % | – |
| COc1ccc(C(NC(=O)c2cnn3c2NC(c2ccccc2)CC3C)c2ccc(OC)cc2)cc1 (stereo not shown) [Example 335, N-(bis(4-methoxyphenyl)methyl)-7-methyl-5-phenyl-4,5,6,7-tetrahydropyrazolo[1,5-a]pyrimidine-3-carboxamide] | 0 (1 μM) % | – |
| CCC(CC)(NC(=O)c1cnn2c1NC(c1ccccc1)CC2C(F)(F)F)c1ccc(C(F)(F)F)cc1 (stereo not shown) [Example 310, N-(1-ethyl-1-(4-(trifluoromethyl)phenyl)propyl)-5-phenyl-7-(trifluoromethyl)-4,5,6,7-tetrahydropyrazolo[1,5-a]pyrimidine-3-carboxamide] | 0 (1 μM) % | – |
| COc1ccc(C(CNC(=O)c2cnn3c2NC(c2ccccc2)CC3C(F)(F)F)c2ccccc2)cc1 (stereo not shown) [Example 318, N-(2-(4-methoxyphenyl)-2-phenylethyl)-5-phenyl-7-(trifluoromethyl)-4,5,6,7-tetrahydropyrazolo[1,5-a]pyrimidine-3-carboxamide] | 34 (1 μM) % | – |
| O=C(NCC(c1ccccc1)N1CCCC1)c1cnn2c1N[C@@H](c1ccccc1)C[C@H]2C(F)(F)F (stereo in doubt) [Example 111, 5-phenyl-N-(2-phenyl-2-(1-pyrrolidinyl)ethyl)-7-(trifluoromethyl)-4,5,6,7-tetrahydropyrazolo[1,5-a]pyrimidine-3-carboxamide] | – | 256 (10 μM) % |
